The target of test [1] is T1, C5a receptor (Homo sapiens, UniProt P21730).
T1 construct: followed by a 20 μL aliquot of neutrophil membrane; endogenous in cells
T1 sequence (P21730 1-350): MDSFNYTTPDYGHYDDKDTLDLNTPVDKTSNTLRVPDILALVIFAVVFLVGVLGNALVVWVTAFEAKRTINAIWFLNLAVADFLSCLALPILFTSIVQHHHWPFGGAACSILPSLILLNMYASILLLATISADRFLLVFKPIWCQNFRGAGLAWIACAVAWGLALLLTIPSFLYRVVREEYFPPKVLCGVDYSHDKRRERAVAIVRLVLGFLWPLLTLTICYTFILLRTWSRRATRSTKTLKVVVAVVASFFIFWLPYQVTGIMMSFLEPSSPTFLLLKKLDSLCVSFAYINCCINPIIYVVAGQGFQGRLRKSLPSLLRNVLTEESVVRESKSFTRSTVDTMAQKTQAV
Description: biochemical. Format: binding. As for the experimental part:
Initially, we attempted to conduct binding studies with ^125 I radiolabeled C009: ^125 I-Tyr Phe Lys Ala Cha Cha Leu dPhe Arg, SEQ.ID:1:, wherein Cha is cyclohexylalanine, and dPhe is the D isomer of phenylalanine. This compound is a C5a agonist displaying a Ki for C5a of 8 nM. The presence of the tyrosine allowed us to radioiodinate the peptide and establish a binding assay in which both C5a (IC50=0.1 nM) and unlabeled C009 (IC50 =10 nM) inhibit the binding of ^125 I-C009 with concentration dependencies similar to those obtained from competition experiments against ^125 I-C5a.
In FIG. 1, unlabeled C013 is used to compete with ^125 I-labeled C5a. […] In FIG. 2, the C013 is ^125 I labeled. Unlabeled C5a and unlabeled C013 are each used to compete the labeled C013 from C5a binding sites on the membranes. […] In FIG. 3a, ^125 I-C5a is competed from its binding site by unlabeled C064 and unlabeled, natural C5a (as opposed to recombinant C5a, which, however, may also obviously may be used for these purposes). […] In FIG. 3b, the inverse experiment is shown, wherein ^125 I-C064 is displaced by unlabeled C064 and unlabeled nC5a.
Peptide (5 nMoles) are added to 40μL of 0.1 M sodium phosphate, pH 7.6, in a tube, followed by 2 mCi of ^125 I in 20 μL. 10 μL of a freshly made 0.5 mg/mL solution of chloramine T is then added. After 30 seconds of incubation, 10 μL of a freshly prepared 2 mg/mL solution of Na2 S2 O3 is added, the tube is vortexed, and the sample loaded onto a Vydac C4 reverse phase column. The column is developed with a TFA/acetonitrile gradient and the iodinated peptide is isolated. The material is stored at 4° C. in the elution buffer.
To 205 μL binding buffer (50 mM HEPES, pH 7.2, containing 5 mM MgCl2, 1mM CaCl2, 0.5% BSA) in a polypropylene tube is added 30,000CPM of the ^125 I peptide in 20 μL, and 5 μL of a known dilution of the test compound or diluent, followed by a 20 μL aliquot of neutrophil membrane [equivalent to 500,000 neutrophils; Rollins, T.E. et al., J. Biol Chem. 260:7157 (1985); see also U.S. Pat. No. 5,177,190, herein incorporated by reference].
The assay mixture is incubated for 2 hours at 29° C. Binding buffer (2 mL) is then added, the tube is vortexed, and the contents filtered over a Wattmann GF/C filter soaked in 0.33% polyethylenimine. An additional aliquot of binding buffer (2 mL) is added to the tube to rinse the tube, and is then used to wash the filter. The filters are removed from the apparatus and counted. Non-specific backgrounds are determined by performing assays in the presence of either 10 nM C5a, or 1 μM unlabeled peptide. Compounds which inhibit the binding of the labeled peptide are considered to be potential active compounds.

In a further test the test system is degranulation. The note with it: Mollison et al., cited from earlier work.
The subject of another test is chemokinetic response. Conditions: Mollison et al.; cited from earlier work.
The test system of the next test is neutrophils. The note with it: Drapeau et al.; cited from earlier work.
Test [2] relates to C5a receptor. The note with it: literature; cited from earlier work.
Test [3] concerns human neutrophils. In words: Inhibition of C5a induced degranulation (MPO release). Format: cell-based. As for the experimental part:
(§1) FIG. 7A and 7B. […] These concentrations of the stimulating agents released 22% and 19% of the total cellular MPO, respectively.
(§2) This assay was performed on human neutrophils as previously reported and it is a measure of C5a or peptide induced exocytosis (Rollins, T. E. and Springer, M. S. (1985) J. Biol. Chem. 260, 7157-7160).

For test [4], the system named is human neutrophil membranes. Description: Inhibition of C5a stimulated GTPase activity. In kind it is biochemical. As for the experimental part: as §1
The method of Kupper et al. (Kupper, R. W., Dewald, B., Jakobs, K. H., Baggiolini, M. and Gierschik, P. (1992) Biochem. J. 282, 429-434) was adapted for use in microtiter plates. Neutrophil membranes were suspended in 50 mM triethanolamine-HCl, 5 mM MES, pH 7.3, containing 1 mM EDTA, 5 mM MgCl2, 143 mM NaCl, 0.16 % BSA, 1 mM ouabain, 1 mM AMP-PNP, 0.5 mM ATP, 2.5 U/mL creatine phosphokinase,. 10 mM creatine phosphate, 0.1 mM PMSF and 10 ng/mL each of leupeptin, aprotinin and chymostatin. 50 μL of membranes containing 1-5 μg protein were added to 50 μL of the same buffer containing the test agent and 0.25 μM [γ-^32 P]-GTP (2,000 cpm/pmol) in the wells of a U-shaped microtiter plate. After incubation for 15-30 rain at 29° C., 100 μL of a 10% (w/v) charcoal suspension in 100 mM H3 PO4 was added and plates were centrifuged at 2000 rpm for 5 min. 100 μL of the supernatant was transferred to an Optiplate microtiter plate and 100 μL of Microscint-40 scintillation cocktail was added. Plates were counted in a Packard TopCount microtiter plate counter.

Test [5] relates to human neutrophils. Description: Inhibition of IL-8 induced degranulation (specificity control). Conditions: 8 nM IL-8, FIG. 7A. Format: cell-based. As for the experimental part:
as §1, §2

[6] abbreviates: labeled ligand 125I-C009, read-out: IC50 for inhibition of binding of 125I-C009.

“Also recorded” adds a separate entry of the source. Like-named read-outs stand apart in the source and are kept apart here. Non-standard residues stand in square brackets, D forms with d. Residues, ends and D or L forms follow the SMILES beside them. NMeF = CN[C@@H](Cc1ccccc1)C(=O)O; Cha = N[C@@H](CC1CCCCC1)C(=O)O; dCha = N[C@H](CC1CCCCC1)C(=O)O

For orientation: IC50 means the point on the concentration scale where inhibition reaches its midpoint.

Turning to `CC(C)C[C@H](NC(=O)[C@H](CC1CCCCC1)NC(=O)[C@H](CC1CCCCC1)NC(=O)[C@H](C)NC(=O)[C@H](CCCCN)NC(=O)[C@H](Cc1ccccc1)NC(=O)[C@@H](N)Cc1ccc(O)cc1)C(=O)N[C@H](Cc1ccccc1)C(=O)N[C@@H](CCCNC(=N)N)C(=O)O` [C009, Tyr Phe Lys Ala Cha Cha Leu dPhe Arg] (H-YFKA[Cha][Cha]L[dF]R-OH), the “change of binding affinity by radioiodination” value on C5a receptor [1] is “about a four-fold loss in binding affinity”. Besides, the IC50 on C5a receptor [1] (setting [6]) worked out at 10 nM.
Turning to `CN[C@@H](Cc1ccccc1)C(=O)N[C@@H](CCCCN)C(=O)N1CCC[C@H]1C(=O)N[C@H](CC1CCCCC1)C(=O)N[C@@H](Cc1ccccc1)C(=O)N[C@H](CCCNC(=N)N)C(=O)O` [C026, NMeF--K--P-dCha-F-dR] (H-[NMeF]KP[dCha]F[dR]-OH), the “degranulating activity in words” value in the test with degranulation is listed as “not only failed to stimulate degranulation, it acted as an antagonist for this property”; with degranulation (listed as NMeF--K--P-dCha-F-dR), “totally devoid of degranulating activity”. Further, the chemokinetic response entry in the test on chemokinetic response is “only a small chemokinetic response”. Further, the “stimulation of superoxide release from neutrophils” value with neutrophils was “failed to stimulate superoxide release from neutrophils”. The “agonist properties in words” value in the test on C5a receptor [2] is on record as “reduced agonist properties; also recorded: behaved as an agonist in other assays”.
Take `CN[C@@H](Cc1ccccc1)C(=O)N[C@@H](CCCCN)C(=O)N1CCC[C@H]1C(=O)N[C@H](CC1CCCCC1)C(=O)N[C@@H](CC1CCCCC1)C(=O)N[C@H](CCCNC(=N)N)C(=O)O` [C028, MePhe Lys Pro dCha Cha dArg] (H-[NMeF]KP[dCha][Cha][dR]-OH): the “degranulating activity in words” value in the test on degranulation is given as “exhibited normal degranulating activity”.
In the case of `CN[C@@H](Cc1ccccc1)C(=O)N[C@@H](CCCCN)C(=O)N1CCC[C@H]1C(=O)N[C@H](CC1CCCCC1)C(=O)N[C@@H](Cc1c[nH]c2ccccc12)C(=O)N[C@H](CCCNC(=N)N)C(=O)O` [C089], in the test on human neutrophils [3], the “inhibition of C5a stimulated degranulation in words” value was “inhibits C5a stimulated degranulation”. In addition, the IC50 in the test with human neutrophils [3] (FIG. 7A, challenge 0.4 nM C5a) worked out at 100 nM; in test [4] (FIG. 7B, 3 nM C5a), 3000 nM. The “inhibition of C5a stimulated G protein activation in words” value in test [4] is “inhibits C5a stimulated degranulation and G protein activation”. In the test on human neutrophils [5], the “effect on IL-8 induced degranulation” value is listed as “little effect on IL-8 induced degranulation”.

B1: C5a: 74 amino acid protein derived from the fifth component of serum complement during complement activation (protein, UniProt P01031 678-751, looked up)
C5a anaphylatoxin: TLQKKIEEIAAKYKHSVVKKCCYDGACVNNDETCEQRAARISLGPRCIKAFTECCVVASQLRANISHKDMQLGR
modifications: C5a anaphylatoxin
For B1, the IC50 in the test with C5a receptor [1] (setting [6]) came to 0.1 nM; with C5a receptor [1] (labeled ligand 125I-C013, read-out: IC50 exhibited by the unlabeled ligand) it was 0.15 nM; in the test with C5a receptor [1] (labeled ligand 125I-C064, read-out: IC50 exhibited by the unlabeled ligand), 0.093 nM.

The record behind these values is patent US5614370A, “Assay to identify human C5a antagonists and agonists” (Merck & Co., Inc., priority 1994, dated 1997).
